Reference: ChEMBL document CHEMBL4402595, “Discovery of Orally Bioavailable Chromone Derivatives as Potent and Selective BRD4 Inhibitors: Scaffold Hopping, Optimization, and Pharmacological Evaluation” (J Med Chem, 2020)

Legend:
[1] = molecular target: T1, Bromodomain-containing protein 4 (Homo sapiens, UniProt O60885); experiment: Inhibition of BRD4 in poly(I:C)-stimulated human SAECs TLR3-inducible CIG5 gene expression at 10 uM pre-incubated for 24 hrs before poly(I:C) stimulation for 4 hrs by qRT-PCR analysis relative to control
[2] = molecular target: T1, Bromodomain-containing protein 4; experiment: Inhibition of BRD4 in poly(I:C)-stimulated human SAECs TLR3-inducible IL-6 gene expression at 10 uM pre-incubated for 24 hrs before poly(I:C) stimulation for 4 hrs by qRT-PCR analysis relative to control
[3] = molecular target: T1, Bromodomain-containing protein 4; experiment: Inhibition of BRD4 in poly(I:C)-stimulated human SAECs TLR3-inducible IL-6 gene expression pre-incubated for 24 hrs before poly(I:C) stimulation for 4 hrs by qRT-PCR analysis
[4] = molecular target: T1, Bromodomain-containing protein 4; experiment: Inhibition of BRD4 in poly(I:C)-stimulated human SAECs TLR3-inducible CIG5 gene expression pre-incubated for 24 hrs before poly(I:C) stimulation for 4 hrs by qRT-PCR analysis
[5] = molecular target: Bromodomain-containing protein 2 (Homo sapiens, UniProt P25440); experiment: Binding affinity to recombinant BRD2 BD2 (unknown origin) incubated for 1 hr by TR-FRET assay
[6] = molecular target: T1, Bromodomain-containing protein 4; experiment: Binding affinity to recombinant BRD4 BD2 (unknown origin) incubated for 1 hr by TR-FRET assay

Bromodomain-containing protein 2, sequence (P25440 whole entry): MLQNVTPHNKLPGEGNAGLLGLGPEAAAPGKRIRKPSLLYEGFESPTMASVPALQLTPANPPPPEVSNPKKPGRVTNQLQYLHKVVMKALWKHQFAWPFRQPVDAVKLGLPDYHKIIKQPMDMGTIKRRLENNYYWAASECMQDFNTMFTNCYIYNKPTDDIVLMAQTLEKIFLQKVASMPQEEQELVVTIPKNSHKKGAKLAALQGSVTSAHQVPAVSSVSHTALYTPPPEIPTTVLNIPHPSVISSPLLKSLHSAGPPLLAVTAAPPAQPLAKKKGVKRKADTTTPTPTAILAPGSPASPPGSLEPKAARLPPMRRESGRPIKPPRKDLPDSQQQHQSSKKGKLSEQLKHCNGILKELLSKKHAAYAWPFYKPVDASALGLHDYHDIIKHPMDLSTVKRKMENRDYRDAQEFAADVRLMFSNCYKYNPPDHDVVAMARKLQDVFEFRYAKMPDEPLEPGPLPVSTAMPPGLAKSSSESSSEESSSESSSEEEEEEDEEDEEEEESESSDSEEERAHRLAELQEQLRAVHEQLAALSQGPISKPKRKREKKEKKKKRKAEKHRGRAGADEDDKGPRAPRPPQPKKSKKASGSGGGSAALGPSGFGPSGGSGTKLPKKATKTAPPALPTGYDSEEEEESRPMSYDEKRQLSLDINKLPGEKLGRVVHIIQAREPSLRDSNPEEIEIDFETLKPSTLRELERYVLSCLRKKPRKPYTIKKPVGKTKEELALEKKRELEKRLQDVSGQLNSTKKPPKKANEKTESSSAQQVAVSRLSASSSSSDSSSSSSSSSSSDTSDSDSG

Row | SMILES | inhibition [1] | inhibition [2] | other results
1 | Cc1cc(-c2nc3ccc(Cl)cc3c(=O)[nH]2)cc(C)c1O | 37% | 53% | 
2 | Cc1cc(-c2nc3ccccc3c(=O)[nH]2)cc(C)c1O |  | 81% | 
3 | COc1cc(OC)c2c(=O)[nH]c(-c3cc(C)c(OC[C@@H]4CO4)c(C)c3)nc2c1 | 87% | 83% | 
4 | COc1cc(OC)c2c(=O)cc(-c3cc(C)c(OC[C@@H](F)CN4CCCCC4)c(C)c3)oc2c1 | 85% | 90% | 
5 | COc1cc(OC)c2c(=O)[nH]c(-c3ccc(O)cc3)nc2c1 | 81% | 63% | 
6 | C=CCOc1c(C)cc(-c2cc(=O)c3c(OC)cc(OC)cc3o2)cc1C | 83% |  | 
7 | O=c1[nH]c(-c2cc(F)c(O)cc2F)nc2ccccc12 | 2.2% | 59% | 
8 | COc1cc(OC)c2c(=O)[nH]c(-c3ccc(O)cc3Cl)nc2c1 | 42% | 66% | 
9 | COc1cc(OC)c2c(=O)cc(-c3cc(C)c(OC[C@H](O)CN4CCOCC4)c(C)c3)oc2c1 | 42% | 82% | 
10 | COc1cc(OC)c2c(=O)cc(-c3cc(C)c(OC[C@H](O)CN4CCC(F)(F)CC4)c(C)c3)oc2c1 | 63% | 88% | 
11 | COc1cc(OC)c2c(=O)[nH]c(-c3cc(C)c(O)c(C)c3)nc2c1 |  | 75% | 
12 | COc1cc(OC)c2c(=O)cc(-c3cc(C)c(OC[C@H](O)CN(C)C)c(C)c3)oc2c1 |  | 82% | 
13 | Cc1cc(-c2nc3ccccc3c(=O)n2C)cc(C)c1O | 18% | 55% | 
14 | Cc1cc(-c2nc3ccc(F)cc3c(=O)[nH]2)cc(C)c1O | -4.5% | 62% | 
15 | COc1cc(OC)c2c(=O)cc(-c3cc(C)c(OC[C@H](O)CN4CCCC4)c(C)c3)oc2c1 | 92% | 99% | IC50 [3]: 970 nM; IC50 [4]: 1480 nM
16 | Cc1cc(-c2nc3cc(-c4ccn(C)n4)ccc3c(=O)[nH]2)cc(C)c1O | 71% |  | 
17 | Cc1cc(-c2nc3ccc(Br)cc3c(=O)[nH]2)cc(C)c1O | 43% | 25% | 

Further lines, with some results ahead:

Row | inhibition [1] | inhibition [2] | SMILES | other results
18 | 84% | 65% | COc1cc(OC)c2c(=O)[nH]c(-c3cc(C)c(OCCO)c(C)c3)nc2c1 | 
19 | 83% | 80% | COc1cc(OC)c2c(=O)[nH]c(-c3cc(C)c(OC[C@@H](O)CN4CCN(C)CC4)c(C)c3)nc2c1 | IC50 [3]: 3500 nM; IC50 [4]: 2600 nM
20 | 61% | 59% | COc1cc(-c2nc3ccccc3c(=O)[nH]2)cc(OC)c1O | 
21 | 100% | 100% | COc1cc(OC)c2c(=O)cc(-c3cc(C)c(OC[C@@H](O)CN4CCCCC4)c(C)c3)oc2c1 | IC50 [5]: 1200 nM; IC50 [3]: 540 nM; IC50 [6]: 93 nM; IC50 [4]: 580 nM
22 |  | 86% | Cc1cc(-c2nc3cc([N+](=O)[O-])ccc3c(=O)n2C)cc(C)c1O | 
23 | 45% |  | COc1cc(OC)c2c(=O)[nH]c(-c3ccc(C(F)(F)F)cc3)nc2c1 | 
24 | 51% | 15% | Cc1cc(-c2nc3cc(Br)ccc3c(=O)[nH]2)cc(C)c1O | 
25 |  | 45% | COc1cc(OC)c2c(=O)[nH]c(-c3ccc(C(F)(F)F)c(C)c3)nc2c1 | 
26 | 33% | 62% | Cc1cc(-c2nc3cccc(F)c3c(=O)[nH]2)cc(C)c1O | 
27 | 97% | 98% | COc1cc(OC)c2c(=O)cc(-c3cc(C)c(OCCO)c(C)c3)oc2c1 | IC50 [3]: 2800 nM; IC50 [4]: 2600 nM
